Source: PMC9221371, “Flavonoid Derivatives as Potential Cholinesterase Inhibitors in Scopolamine-Induced Amnesic Mice: An In Vitro, In Vivo and Integrated Computational Approach” (Brain Sciences, 2022)
Where two headings read alike, the source gives them in different places.

Legend:
[1] = system: scopolamine-induced amnesic mice; assay: Y-Maze Paradigm, spontaneous alternation in scopolamine-induced amnesic model; type: in vivo, Balb/C mice; settings: for Spontaneous Alternation Performance: scopolamine 1 mg/kg i.p., n = 8
From the text: (§1) For assessment of acute toxicity of the flavones (F1–F5), animals (21 in number) were divided into groups of 3 animals each. The reported protocols by Lorke were followed with slight modification to perform tests in two phases. In the first phase, one (control) group of animals were given Tween-80 (2%), and oral doses of F1–F5 were given to the remaining groups, respectively, at various doses (mg/kg body weight). […] The animals were housed in plastic cages. After two weeks, the animals were sacrificed by euthanasia with isoflurane in a humane manner for assessment of the effects on total weight and weight of the vital organs. The biochemical parameters of blood and histological studies of vital organs (kidney and liver tissue) were also assessed. […] The preliminary pharmacological activity was assessed at various dose concentrations of F1–F5 (2.5–20 mg/kg b.w.) to determine the effective dose for assessment of cognitive function using animal models.
(§2) The animals in the control (normal) and scopolamine amnesic groups were administered vehicle (Tween-80, 2%) only. Treated animals received F1–F5 suspended in Tween-80 (2%) p.o. at their respective doses for a period of 4 weeks. […] For assessing behavioral effects using the Y-Maze Paradigm and novel object discrimination (NOD) task, scopolamine (1 mg/kg, i.p.) was given to the different groups, 30 min after the respective treatments, to induce memory impairment (amnesia) in mice. All of the tests were performed between 8:00 a.m. and 6:00 p.m. to avoid sham results in the performance of the animals.
(§3) Behavioral tasks on the Y-Maze Paradigm and “NOD” tasks were conducted in the 5th week of study to determine learning and memory functions. The apparatus arena was cleaned with 70% ethanol during the inter-trial interval to prevent a confounding error due to the influence of odor [20, 21].
The Y-Maze task is a non-invasive and reliable behavioral test that was used for memory assessment of spontaneous alternation for F1–F5 based on previously reported protocols. A single session of Y-Maze was used to record the spontaneous alternation behavior of the animals to determine exploratory behavior and instant memory functioning. The apparatus was made of three arms in a “Y” shape (35 cm × 8 cm × 15 cm) with an equilateral triangular central area. In brief, each of the mice, previously naive to the maze, was placed at the terminal end of one arm. The animals were allowed to move and explore freely for 8 min through the maze. The number of arm entries was noted. One arm entry was considered when the hind paws of the animal were completely placed inside the arm, and the series of arm entries were documented. The spontaneous alternation in percent was calculated.

Balb/C mice = assay: Acute toxicity study; type: in vivo; settings: n = 3; for ALP / AST / Creatinine / Glucose / Total Cholesterol / Triglyceride: blood; for Kidney Weight / Liver Weight / Total Weight: mice
From the text: Two weeks before the experiment, the animals were acclimatized to laboratory conditions.
as §1

[2] = biological target: T1, BuChE (equine serum lyophilized) (Equus caballus, UniProt P81908); assay: biochemical; settings: triplicate; read-out: BChE IC50 (converted)
T1 construct: purchased Sigma-Aldrich (Taufkirchen, Germany); host or cells: equine serum
Description: (§4) Synthetic flavonoids F1–F5 previously synthesized by our group were used in the study.
(§5) For the determination of acetylcholinesterase inhibitory potentials, AChE and BuChE were used. […] To the tube were added DTNB (100 µL) and buffer (2.4 mL). The tube was incubated at 25 °C for 5 min as pre-incubation. The reaction was started by adding ATChI (40 µL), and the mixture was incubated at 25 °C for 20 min. The absorbance at 412 nm was measured spectrophotometrically in triplicate. […] The data were recorded in triplicate, and IC50 was calculated.

[3] = biological target: T2, AChE (electric eel type-VI-S) (Electrophorus electricus, UniProt O42275); assay: biochemical; settings: 25 °C, triplicate
T2 construct: purchased Sigma-Aldrich (Taufkirchen, Germany)
Description: as §4, §5

[4] = system: brains of scopolamine-induced amnesic mice; assay: Antioxidant enzyme activities and oxidative stress markers in brain homogenate; type: in vivo, Balb/C mice
Description: as §2
(§6) The brain was extracted, and a homogenate (10% w/v) in 0.1 M of phosphate buffer (pH 7.4) was prepared by centrifugation for the assessment of brain oxidative status and estimating brain acetylcholinesterase activity. Catalase (CAT), superoxide dismutase (SOD), glutathione (GSH) and level of lipid peroxidation (malondialdehyde, MDA) were quantified as oxidative stress markers.

[5] = system: scopolamine-induced amnesic mice; assay: Novel object discrimination (NOD) task in scopolamine-induced amnesic model; type: in vivo, Balb/C mice; settings: scopolamine 1 mg/kg i.p., n = 8
Description: as §2, §3
Animals were challenged for the novel object discrimination task for F1–F5 as per previously reported protocols. After habituation and acclimatization, animals in each group had two consecutive object exploration trials (5 min each) for this test, with a break of 4 h in between two trials. In the familiarization phase (sample), the animals were challenged to explore two objects similar to each other. In the second phase (test), any of the two objects was changed by a new object. Exploration time in sec for the objects, including chewing, licking, sniffing or pointing the vibrissae of nose towards the object, was recorded. The discrimination ratio (%DI) was then determined using:(T novel object − T familiar object)/(T novel object + T familiar object) × 100(1)

[6] = biological target: T3, brain acetylcholinesterase (Mus musculus, UniProt P21836); type: in vivo; design: unit not given here; settings: brain homogenate, n = 8
T3 construct: The brain was extracted, and a homogenate (10% w/v) in 0.1 M of phosphate buffer (pH 7.4) was prepared; from tissue; host or cells: mouse brain homogenate
Description: as §2, §6

[7] = 7.5 mg/kg b.w., n = 8, 7.5 mg/kg

T3 sequence (P21836 32-614): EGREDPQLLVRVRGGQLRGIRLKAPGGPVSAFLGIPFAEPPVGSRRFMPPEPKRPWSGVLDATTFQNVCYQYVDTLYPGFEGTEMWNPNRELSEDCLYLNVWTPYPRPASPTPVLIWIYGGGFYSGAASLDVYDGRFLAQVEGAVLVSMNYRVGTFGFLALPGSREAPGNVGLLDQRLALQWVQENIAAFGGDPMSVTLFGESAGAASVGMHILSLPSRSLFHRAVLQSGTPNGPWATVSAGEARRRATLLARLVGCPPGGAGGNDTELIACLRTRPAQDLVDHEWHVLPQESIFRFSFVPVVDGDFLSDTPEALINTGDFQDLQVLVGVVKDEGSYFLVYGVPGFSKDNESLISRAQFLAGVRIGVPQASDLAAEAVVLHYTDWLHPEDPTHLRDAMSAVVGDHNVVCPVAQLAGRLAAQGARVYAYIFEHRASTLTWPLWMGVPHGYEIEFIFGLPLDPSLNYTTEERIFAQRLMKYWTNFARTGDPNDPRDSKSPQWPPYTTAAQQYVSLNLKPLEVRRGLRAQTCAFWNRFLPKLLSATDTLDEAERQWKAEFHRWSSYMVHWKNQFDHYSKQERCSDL
T2 sequence (O42275 24-633): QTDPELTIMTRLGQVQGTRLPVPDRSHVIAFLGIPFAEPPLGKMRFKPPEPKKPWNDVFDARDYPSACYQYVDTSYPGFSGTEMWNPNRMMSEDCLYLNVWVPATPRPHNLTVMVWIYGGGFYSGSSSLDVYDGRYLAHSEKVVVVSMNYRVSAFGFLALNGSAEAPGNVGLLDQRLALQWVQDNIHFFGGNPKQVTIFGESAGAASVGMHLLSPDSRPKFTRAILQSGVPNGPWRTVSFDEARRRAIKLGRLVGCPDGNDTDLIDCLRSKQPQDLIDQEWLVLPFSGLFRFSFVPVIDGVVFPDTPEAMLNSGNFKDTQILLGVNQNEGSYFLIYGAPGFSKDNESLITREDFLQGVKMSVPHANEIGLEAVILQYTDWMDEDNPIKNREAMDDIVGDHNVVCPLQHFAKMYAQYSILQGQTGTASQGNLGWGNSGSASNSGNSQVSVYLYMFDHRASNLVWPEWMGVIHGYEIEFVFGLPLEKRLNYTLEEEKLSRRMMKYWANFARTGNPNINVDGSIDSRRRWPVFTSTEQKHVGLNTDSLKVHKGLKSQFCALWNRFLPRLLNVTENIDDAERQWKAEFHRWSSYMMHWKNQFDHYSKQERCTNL
T1 sequence (P81908 whole entry): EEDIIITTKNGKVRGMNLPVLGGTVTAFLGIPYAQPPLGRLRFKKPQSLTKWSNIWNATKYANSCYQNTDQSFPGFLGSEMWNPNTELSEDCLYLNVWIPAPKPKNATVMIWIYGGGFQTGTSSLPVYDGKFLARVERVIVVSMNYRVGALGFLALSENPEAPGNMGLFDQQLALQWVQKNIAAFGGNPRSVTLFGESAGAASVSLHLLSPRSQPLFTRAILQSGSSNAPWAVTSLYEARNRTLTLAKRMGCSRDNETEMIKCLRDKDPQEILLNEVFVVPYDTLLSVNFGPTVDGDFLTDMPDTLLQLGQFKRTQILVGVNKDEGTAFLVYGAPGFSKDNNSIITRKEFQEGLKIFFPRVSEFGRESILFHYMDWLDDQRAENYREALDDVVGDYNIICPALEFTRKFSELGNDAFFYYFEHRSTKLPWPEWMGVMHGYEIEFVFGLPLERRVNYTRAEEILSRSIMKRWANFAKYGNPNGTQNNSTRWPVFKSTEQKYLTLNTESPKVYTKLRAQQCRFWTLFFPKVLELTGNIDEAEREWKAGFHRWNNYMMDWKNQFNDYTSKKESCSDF

O=c1cc(-c2ccc(Cl)cc2)oc2ccccc12 [Compound F1]
Spontaneous Alternation Performance ([1]; 7.5 mg/kg b.w. p.o. 4 weeks): 49.90 ± 1.33%
Spontaneous Alternation Performance ([1]; 15 mg/kg b.w. p.o. 4 weeks): 51.78 ± 1.45%
Spontaneous alternation performance (preliminary, selection of doses) ([1]; Table S1, dose 2.5 mg/kg b.w.): 37.02±2.11
Spontaneous alternation performance (preliminary, selection of doses) ([1]; Table S1, dose 5 mg/kg b.w.): 38.91±1.67
Spontaneous alternation performance (preliminary, selection of doses) ([1]; Table S1, dose 7.5 mg/kg b.w.): 49.12±1.45
Spontaneous alternation performance (preliminary, selection of doses) ([1]; Table S1, dose 10 mg/kg b.w.): 48.66±1.98
Spontaneous alternation performance (preliminary, selection of doses) ([1]; Table S1, dose 12.5 mg/kg b.w.): 48.98±2.01
Spontaneous alternation performance (preliminary, selection of doses) ([1]; Table S1, dose 15 mg/kg b.w.): 51.72±1.88
Spontaneous alternation performance (preliminary, selection of doses) ([1]; Table S1, dose 20 mg/kg b.w.): 52.03±2.03
ALP (Balb/C mice; 600 mg/kg b.w. oral): 132.54 ± 2.78 U/L
AST (Balb/C mice; 600 mg/kg b.w. oral): 107.89 ± 2.01 U/L
Creatinine (Balb/C mice; 600 mg/kg b.w. oral): 0.36 ± 0.05 mg/dL
Glucose (Balb/C mice; 600 mg/kg b.w. oral): 85.51 ± 2.33 mg/dL
Total Cholesterol (Balb/C mice; 600 mg/kg b.w. oral): 103.19 ± 2.06 mg/dL
Triglyceride (Balb/C mice; 600 mg/kg b.w. oral): 95.20 ± 2.76 mg/dL
Kidney Weight (Balb/C mice; 600 mg/kg b.w. oral): 0.29 ± 0.19 g
Liver Weight (Balb/C mice; 600 mg/kg b.w. oral): 1.24 ± 0.21 g
Total Weight (Balb/C mice; 600 mg/kg b.w. oral): 21.82 ± 1.39 g
ALP (Balb/C mice; 1000 mg/kg b.w. oral): 136.33 ± 2.39 U/L
AST (Balb/C mice; 1000 mg/kg b.w. oral): 108.34 ± 2.66 U/L
Creatinine (Balb/C mice; 1000 mg/kg b.w. oral): 0.38 ± 0.06 mg/dL
Glucose (Balb/C mice; 1000 mg/kg b.w. oral): 86.98 ± 2.09 mg/dL
Total Cholesterol (Balb/C mice; 1000 mg/kg b.w. oral): 102.76 ± 1.87 mg/dL
Triglyceride (Balb/C mice; 1000 mg/kg b.w. oral): 94.78 ± 1.98 mg/dL
Kidney Weight (Balb/C mice; 1000 mg/kg b.w. oral): 0.29 ± 0.18 g
Liver Weight (Balb/C mice; 1000 mg/kg b.w. oral): 1.23 ± 0.26 g
Total Weight (Balb/C mice; 1000 mg/kg b.w. oral): 22.93 ± 1.91 g
ALP (Balb/C mice; 2000 mg/kg b.w. oral): 135.29 ± 4.17 U/L
AST (Balb/C mice; 2000 mg/kg b.w. oral): 109.73 ± 1.98 U/L
Creatinine (Balb/C mice; 2000 mg/kg b.w. oral): 0.34 ± 0.04 mg/dL
Glucose (Balb/C mice; 2000 mg/kg b.w. oral): 86.45 ± 2.27 mg/dL
Total Cholesterol (Balb/C mice; 2000 mg/kg b.w. oral): 102.05 ± 2.01 mg/dL
Triglyceride (Balb/C mice; 2000 mg/kg b.w. oral): 96.22 ± 1.70 mg/dL
Kidney Weight (Balb/C mice; 2000 mg/kg b.w. oral): 0.30 ± 0.20 g
Liver Weight (Balb/C mice; 2000 mg/kg b.w. oral): 1.23 ± 0.24 g
Total Weight (Balb/C mice; 2000 mg/kg b.w. oral): 21.79 ± 1.72 g
ALP (Balb/C mice; 3000 mg/kg b.w. oral): 136.09 ± 3.12 U/L
AST (Balb/C mice; 3000 mg/kg b.w. oral): 109.90 ± 2.09 U/L
Creatinine (Balb/C mice; 3000 mg/kg b.w. oral): 0.29 ± 0.03 mg/dL
Glucose (Balb/C mice; 3000 mg/kg b.w. oral): 85.72 ± 1.97 mg/dL
Total Cholesterol (Balb/C mice; 3000 mg/kg b.w. oral): 101.28 ± 1.98 mg/dL
Triglyceride (Balb/C mice; 3000 mg/kg b.w. oral): 97.41 ± 1.83 mg/dL
Kidney Weight (Balb/C mice; 3000 mg/kg b.w. oral): 0.31 ± 0.27 g
Liver Weight (Balb/C mice; 3000 mg/kg b.w. oral): 1.25 ± 0.29 g
Total Weight (Balb/C mice; 3000 mg/kg b.w. oral): 22.71 ± 1.79 g
IC50 [2]: 603 µM
IC50 [3]: 644 µM
GSH ([4]; 7.5 mg/kg b.w., n = 8): 34.62 ± 1.50 μg/mg of Protein
MDA ([4]; 7.5 mg/kg b.w., n = 8): 16.39 ± 1.28 nmol/mg Protein
CAT [4, 7]: 21.93 ± 1.37 U/mg of Protein
SOD [4, 7]: 8.97 ± 1.12 U/mg of Protein
GSH ([4]; 15 mg/kg b.w., n = 8): 35.70 ± 1.47 μg/mg of Protein
MDA ([4]; 15 mg/kg b.w., n = 8): 16.12 ± 1.47 nmol/mg Protein
CAT ([4]; 15 mg/kg b.w., n = 8, 15 mg/kg): 22.31 ± 1.22 U/mg of Protein
SOD ([4]; 15 mg/kg b.w., n = 8, 15 mg/kg): 9.12 ± 1.28 U/mg of Protein
discrimination index (%DI) ([5]; 7.5 mg/kg b.w. p.o. 4 weeks): 48.67 ± 1.57%
discrimination index (%DI) ([5]; 15 mg/kg b.w. p.o. 4 weeks): 51.11 ± 1.48%
level of AChE ([6]; 7.5 mg/kg b.w.): 21.31 ± 0.53
level of AChE ([6]; 15 mg/kg b.w.): 21.01 ± 0.61

O=c1cc(-c2ccc(Cl)cc2Cl)oc2ccccc12 [Compound F2]
Spontaneous Alternation Performance ([1]; 7.5 mg/kg b.w. p.o. 4 weeks): 47.13 ± 1.65%
Spontaneous Alternation Performance ([1]; 15 mg/kg b.w. p.o. 4 weeks): 49.88 ± 1.28%
IC50 [2]: 361 µM
IC50 [3]: 451 µM
CAT ([4]; 7.5 mg/kg b.w., n = 8): 22.83 ± 1.19 U/mg of Protein
GSH ([4]; 7.5 mg/kg b.w., n = 8): 34.93 ± 1.22 μg/mg of Protein
MDA ([4]; 7.5 mg/kg b.w., n = 8): 15.16 ± 1.21 nmol/mg Protein
SOD ([4]; 7.5 mg/kg b.w., n = 8): 9.25 ± 1.36 U/mg of Protein
CAT ([4]; 15 mg/kg b.w., n = 8): 23.71 ± 1.45 U/mg of Protein
GSH ([4]; 15 mg/kg b.w., n = 8): 35.91 ± 1.39 μg/mg of Protein
MDA ([4]; 15 mg/kg b.w., n = 8): 14.90 ± 1.33 nmol/mg Protein
SOD ([4]; 15 mg/kg b.w., n = 8): 9.33 ± 1.45 U/mg of Protein
